Experiment: xn = mol fraction of the nth substance listed
Details: 101 kPa

COCCO + CCCC[n+]1ccn(C)c1.F[P-](F)(F)(F)(F)F
x2 = 0
Details | speed of sound [m/s]
298.15 K | 1342.1
303.15 K | 1324.7
308.15 K | 1307.4
313.15 K | 1290.1
318.15 K | 1272.7
323.15 K | 1255.4

CCCC[n+]1ccn(C)c1.F[P-](F)(F)(F)(F)F + COCCO
speed of sound [m/s]
Details | x1 = 0.0966 | x1 = 0.1943 | x1 = 0.2887 | x1 = 0.3979 | x1 = 0.4792 | x1 = 0.5943 | x1 = 0.6753 | x1 = 0.8101 | x1 = 0.8849 | x1 = 1
298.15 K | 1365.5 | 1384.8 | – | 1407.6 | 1414.1 | – | 1427.3 | 1435.2 | – | 1443.8
303.15 K | 1349.4 | 1369.8 | 1383.3 | – | 1401.4 | 1409.8 | 1414.9 | 1422.8 | – | 1431.7
308.15 K | 1333.3 | 1354.5 | 1369 | – | 1388.8 | 1397.5 | – | 1411 | 1414.9 | 1419.8
313.15 K | 1317.6 | 1339.6 | 1355.1 | 1368.2 | 1376 | 1385.6 | – | 1399.3 | 1403.1 | 1408.2
318.15 K | 1301.5 | 1324.7 | 1341.4 | – | 1363.7 | 1373.6 | – | 1388 | 1391.8 | –
323.15 K | 1285.5 | 1310.1 | 1327.8 | 1343 | 1352.2 | 1362.1 | 1368.3 | 1377.2 | – | 1385.6
